# Measurements from publication PMC9516332 (Frontiers in Oncology, 2022).
# Like-named read-outs stand apart in the source and are kept apart here.
# Test system: 134 cancer cell lines
# Experiment: Cell viability assay (ATPlite, 72 hours), IC50 on cancer cell line panel
structure (smiles),measurement,setting,value
CCCS(=O)(=O)Nc1ccc(F)c(C(=O)c2c[nH]c3ncc(-c4ccc(Cl)cc4)cc23)c1F [vemurafenib],IC50,"HEC-6, read-out: IC50 in cell proliferation assay, HEC-6 cell line (EGFR p.A289V)",> 31.6 µM
same,IC50,"Homo sapiens, 769-P, read-out: IC50 in cell proliferation assay, cell line 769-P",> 31.6 µM
same,IC50,"Homo sapiens, 786-0, read-out: IC50 in cell proliferation assay, cell line 786-O",25.1 µM
same,IC50,"Homo sapiens, A 172, read-out: IC50 in cell proliferation assay, cell line A-172",> 31.6 µM
same,IC50,"Homo sapiens, A204, read-out: IC50 in cell proliferation assay, cell line A-204",> 31.6 µM
same,IC50,"Homo sapiens, A498, read-out: IC50 in cell proliferation assay, cell line A-498",21.6 µM
same,IC50,"Homo sapiens, A549, read-out: IC50 in cell proliferation assay, cell line A-549",31.2 µM
same,IC50,"Homo sapiens, A704, read-out: IC50 in cell proliferation assay, cell line A-704",> 31.6 µM
same,IC50,"Homo sapiens, A-375, read-out: IC50 in cell proliferation assay, cell line A-375 (BRAF p.V600E)",1.76 µM
same,IC50,"Homo sapiens, A-427, read-out: IC50 in cell proliferation assay, cell line A-427",> 31.6 µM
same,IC50,"Homo sapiens, ACHN, read-out: IC50 in cell proliferation assay, cell line ACHN",20.1 µM
same,IC50,"Homo sapiens, AN3-CA, read-out: IC50 in cell proliferation assay, cell line AN3-CA (FGFR2 p.N549K)",> 31.6 µM
same,IC50,"Homo sapiens, ASPC1, read-out: IC50 in cell proliferation assay, cell line AsPC-1",> 31.6 µM
same,IC50,"Homo sapiens, AU565, read-out: IC50 in cell proliferation assay, cell line AU565 (ERBB2 amplification)",> 31.6 µM
same,IC50,"Homo sapiens, BT-20, read-out: IC50 in cell proliferation assay, cell line BT-20",> 31.6 µM
same,IC50,"Homo sapiens, BT-474, read-out: IC50 in cell proliferation assay, cell line BT-474 (ERBB2 amplification)",> 31.6 µM
same,IC50,"Homo sapiens, BT-549, read-out: IC50 in cell proliferation assay, cell line BT-549",31.2 µM
same,IC50,"Homo sapiens, BXPC-3, read-out: IC50 in cell proliferation assay, cell line BxPC-3",28.2 µM
same,IC50,"Homo sapiens, C-33-A, read-out: IC50 in cell proliferation assay, cell line C-33 A",> 31.6 µM
same,IC50,"Homo sapiens, CAL-27, read-out: IC50 in cell proliferation assay, cell line CAL-27",> 31.6 µM
same,IC50,"Homo sapiens, CCF-STTG1, read-out: IC50 in cell proliferation assay, cell line CCF-STTG1",> 31.6 µM
same,IC50,"Homo sapiens, CCRF-CEM, read-out: IC50 in cell proliferation assay, cell line CCRF-CEM",27.6 µM
same,IC50,"Homo sapiens, COLO 205, read-out: IC50 in cell proliferation assay, cell line COLO 205 (BRAF p.V600E)",0.744 µM
same,IC50,"Homo sapiens, COLO-829, read-out: IC50 in cell proliferation assay, cell line COLO 829 (BRAF p.V600E)",2.22 µM
same,IC50,"Homo sapiens, DLD-1, read-out: IC50 in cell proliferation assay, cell line DLD-1",> 31.6 µM
same,IC50,"Homo sapiens, DU-4475, read-out: IC50 in cell proliferation assay, cell line DU4475 (BRAF p.V600E)",1.83 µM
same,IC50,"Homo sapiens, Daoy, read-out: IC50 in cell proliferation assay, cell line Daoy",> 31.6 µM
same,IC50,"Homo sapiens, DoTc2-4510, read-out: IC50 in cell proliferation assay, cell line DoTc2 4510",> 31.6 µM
same,IC50,"Homo sapiens, EOL1, read-out: IC50 in cell proliferation assay, cell line EoL-1 (FIP1L1-PDGFRA)",1.62 µM
same,IC50,"Homo sapiens, FaDu, read-out: IC50 in cell proliferation assay, cell line FaDu",> 31.6 µM
same,IC50,"Homo sapiens, G-361, read-out: IC50 in cell proliferation assay, cell line G-361 (BRAF p.V600E)",3.25 µM
same,IC50,"Homo sapiens, HCC827, read-out: IC50 in cell proliferation assay, cell line HCC827 (EGFR exon19del)",> 31.6 µM
same,IC50,"Homo sapiens, HCC4006, read-out: IC50 in cell proliferation assay, cell line HCC4006 (EGFR exon19del)",> 31.6 µM
same,IC50,"Homo sapiens, HCT-15, read-out: IC50 in cell proliferation assay, cell line HCT 15",> 31.6 µM
same,IC50,"Homo sapiens, HCT-116, read-out: IC50 in cell proliferation assay, cell line HCT 116",> 31.6 µM
same,IC50,"Homo sapiens, HEC-1, read-out: IC50 in cell proliferation assay, HEC-1 cell line",> 31.6 µM
same,IC50,"Homo sapiens, HEC-1B, read-out: IC50 in cell proliferation assay, HEC-1-B cell line (EGFR p.A864V)",> 31.6 µM
same,IC50,"Homo sapiens, HL-60, read-out: IC50 in cell proliferation assay, HL-60 cell line",> 31.6 µM
same,IC50,"Homo sapiens, HT, read-out: IC50 in cell proliferation assay, HT cell line",> 31.6 µM
same,IC50,"Homo sapiens, HT-1080, read-out: IC50 in cell proliferation assay, HT-1080 cell line",9.43 µM
same,IC50,"Homo sapiens, Hs746T, read-out: IC50 in cell proliferation assay, Hs 746.T cell line (MET exon14skip + amplification)",> 31.6 µM
same,IC50,"Homo sapiens, Hs-578T, read-out: IC50 in cell proliferation assay, Hs 578T cell line",30.6 µM
same,IC50,"Homo sapiens, HuTu80, read-out: IC50 in cell proliferation assay, HuTu 80 cell line",> 31.6 µM
same,IC50,"Homo sapiens, J82, read-out: IC50 in cell proliferation assay, J82 cell line",> 31.6 µM
same,IC50,"Homo sapiens, Jurkat E6.1, read-out: IC50 in cell proliferation assay, Jurkat E6.1 cell line",28.3 µM
same,IC50,"Homo sapiens, K562, read-out: IC50 in cell proliferation assay, K-562 cell line",> 31.6 µM
same,IC50,"Homo sapiens, KATO III, read-out: IC50 in cell proliferation assay, KATO III cell line (FGFR2 amplification)",20.7 µM
same,IC50,"Homo sapiens, KG-1, read-out: IC50 in cell proliferation assay, KG-1 cell line (FGFR1OP2-FGFR1)",> 31.6 µM
same,IC50,"Homo sapiens, KLE, read-out: IC50 in cell proliferation assay, KLE cell line",> 31.6 µM
same,IC50,"Homo sapiens, KMS-11, read-out: IC50 in cell proliferation assay, KMS-11 cell line (FGFR3 p.Y373C)",29.5 µM
same,IC50,"Homo sapiens, KU812, read-out: IC50 in cell proliferation assay, Ku812 cell line",28.5 µM
same,IC50,"Homo sapiens, Kasumi 1, read-out: IC50 in cell proliferation assay, Kasumi-1 cell line (KIT p.N822K)",> 31.6 µM
same,IC50,"Homo sapiens, LC-2-ad, read-out: IC50 in cell proliferation assay, LC-2/ad cell line (CCDC6-RET)",> 31.6 µM
same,IC50,"Homo sapiens, LNCaP-Clone-FGC, read-out: IC50 in cell proliferation assay, LNCaP clone FGC cell line",> 31.6 µM
same,IC50,"Homo sapiens, LS174T, read-out: IC50 in cell proliferation assay, LS174T cell line",> 31.6 µM
same,IC50,"Homo sapiens, LS-411N, read-out: IC50 in cell proliferation assay, LS411N cell line (BRAF p.V600E)",1.28 µM
same,IC50,"Homo sapiens, LoVo, read-out: IC50 in cell proliferation assay, LoVo cell line",> 31.6 µM
same,IC50,"Homo sapiens, MCF7, read-out: IC50 in cell proliferation assay, MCF-7 cell line",> 31.6 µM
same,IC50,"Homo sapiens, MDA-MB-231, read-out: IC50 in cell proliferation assay, MDA-MB-231 cell line",> 31.6 µM
same,IC50,"Homo sapiens, MDA-MB-453, read-out: IC50 in cell proliferation assay, MDA-MB-453 cell line",> 31.6 µM
same,IC50,"Homo sapiens, MDA-MB-468, read-out: IC50 in cell proliferation assay, MDA-MB-468 cell line",> 31.6 µM
same,IC50,"Homo sapiens, MG-63, read-out: IC50 in cell proliferation assay, MG-63 cell line",> 31.6 µM
same,IC50,"Homo sapiens, MIA PaCa-2, read-out: IC50 in cell proliferation assay, MIA PaCa-2 cell line",> 31.6 µM
same,IC50,"Homo sapiens, MKN-45, read-out: IC50 in cell proliferation assay, MKN45 cell line (MET amplification)",> 31.6 µM
same,IC50,"Homo sapiens, MOLM-13, read-out: IC50 in cell proliferation assay, MOLM-13 cell line (FLT3 ITD)",8.9 µM
same,IC50,"Homo sapiens, MOLT-4, read-out: IC50 in cell proliferation assay, MOLT-4 cell line",30.6 µM
